Where no end group is shown, it is not given here. The star is where a group is joined. Biotin = O=C1N[C@H]2[C@H](CS[C@H]2CCCCC(=O)*)N1
Test system: human immature monocyte-derived dendritic cells (DCs)
Test: Cytokine/chemokine secretion by human immature monocyte-derived dendritic cells (ELISA)
Type: cell-based
Set-up: key to TNFα secretion / IL-18 secretion / IL-8 secretion / IL-10 secretion / IL-6 secretion / IL-12 secretion: “+” indicates an increase; “−” indicates no change relative to untreated cells (medium)
Conditions: for IL-6 secretion / IL-8 secretion / IL-10 secretion / IL-12 secretion / IL-18 secretion / TNFα secretion: HUMAN DC, ELISA 48 h after exposure, relative to untreated cells; for secretion of IL-6 by DCs: FIGS. 1A, 1B
Protocol: Peripheral blood mononuclear cells (PBMCs) were isolated from the blood of normal volunteers (Long Island Blood Services, Melville, N.Y.) over a Ficoll-Hypaque (Amersham Biosciences, Uppsala, Sweden) density gradient. CD14^+ monocytes were isolated from PBMCs by positive selection using anti-CD14 beads (Miltenyi Biotech., Auburn, Calif.), following the manufacturer's instructions. To generate DCs, CD14^+ cells were cultured in RPMI 1640 medium supplemented with 2 mM L-glutamine (GIBCO-BRL Life Technologies, Grand Island, N.Y.), 50 μM 2-mercaptoethanol (Sigma, St. Louis, Mo.), 10 mM HEPES (GIBCO-BRL), penicillin (100 U/ml), streptomycin (100 μg/ml) (GIBCO-BRL), and 5% human AB serum (Gemini Bio-Products, Woodland, Calif.). Cultures were maintained for 7 days in 6-well trays (3×10^6 cells/well) supplemented with 1000 U GM-CSF per ml (Immunex, Seattle, Wash.) and 200 U IL-4 per ml (R&D Systems, Minneapolis, Minn.) at days 0, 2, 4 and 6.
Recombinant HMGB1-B box domain (HMGB1-Bx) was expressed in Escherichia coli and purified as described by Li, et al. (Mol. Med. 9:37-45; J. Immunol. Methods 289:211-223 (2004)). Purified HMGB1-Bx contained trace amounts of LPS (19 pg LPS/μg HMGB1-Bx) as measured by the chromogenic Limulus amebocyte lysate assay (BioWhittacker Inc, Walkersville, Md.). All experiments using HMGB1-Bx, as well as the HMGB1 peptides, were performed in the presence of polymyxin B (200 U/ml) to neutralize the amount of contaminating LPS in the HMGB1-Bx and peptide preparations. We have previously shown that the DC stimulatory capacity of HMGB1-Bx requires an intact tertiary structure and is not due to contaminating amounts of LPS, as trypsinization abolished HMGB1-Bx activity (Messmer, et al., J. Immunol. 173: 307-313 (2004); the entire teachings of which are incorporated herein by reference).
Secreted cytokine/chemokine levels were measured by ELISA (Pierce Boston Technology Center, SearchLight™ Proteome Arrays Multiplex Sample Testing Services, Woburn, Mass.) 48 h after addition of the various peptides. Polymyxin B (200 U/ml) was added to all cultures, except those containing LPS, before the stimuli were added. Immature monocyte-derived human dendritic cells (DCs) and immature bone-marrow derived murine dendritic cells (BM-DCs) were cultured either in the presence of HMGB1 peptides (200 μg/ml), whose sequences map to different regions of the HMGB1 protein (see Table 1), the entire HMGB1 B-box domain (HMGB1-Bx) (50 μg/ml), or LPS (100 ng/ml). Untreated cells (medium) were tested as a control. Each peptide was named according to the corresponding position of its first amino acid within the full-length HMGB1 sequence. All peptides were N-terminally biotinylated except “Hp-106 (non bio)”.

[1] = peptides 200 μg/ml, HMGB1-Bx 50 μg/ml
[2] = human DCs, peptides 200 μg/ml, 48 h

Sequence | IL-6 secretion [1] | IL-8 secretion [1] | IL-10 secretion [1] | IL-12 secretion [1] | IL-18 secretion [1] | TNFα secretion [1] | cytokine secretion by human DCs (human DCs) | secretion of IL-12 (p70) (human DCs, FIG. 1C, peptides 200 μg/ml, 48 h) | secretion of TNF-α (human DCs, FIG. 1D, peptides 200 μg/ml, 48 h) | secretion of IL-18 (human DCs, FIG. 1E, peptides 200 μg/ml, HMGB1-Bx 50 μg/ml, 48 h) | secretion of IL-8 (human DCs, FIG. 1F, peptides 200 μg/ml, HMGB1-Bx 50 μg/ml, 48 h) | secretion of IL-6 by DCs [2]
CSEYRPKIKGEHPGLSIG [Hp-106] (Biotin-CSEYRPKIKGEHPGLSIG; listed as Homo sapiens) | + | − | − | + | + | + | induced cytokine secretion by human DCs | induced secretion | induced secretion | induced secretion | did not induce secretion | induced secretion
YAFFVQTCREEHIKKHPD [Hp-16] | − | − | − | − | − | − | did not stimulate cytokine secretion and not |  |  |  |  | did not induce IL-6 secretion

— US8354106B2, “Antibodies against HMGB1 and fragments thereof” (The Feinstein Institute for Medical Research, priority 2005, dated 2013)
